Test results: US20100273656A1, “COMPOSITION AND METHOD FOR SELECTIVE HERBICIDE” (priority 2002, published 2010)
Like-named read-outs stand apart in the source and are kept apart here.

Key:
[1] = test system: dandelions (Taraxacum officinale); assay: Example 9 lawn restoration, dandelion coverage; format: in vivo
Procedure: (§1) Na4EDTA was added to the ferrous sulfate solution at 1.5% (36 mM). The molar level of EDTA is 1/10 that of the iron ions. […] The urea is added as a nitrogen fertilizer source to encourage the growth of the grasses.

dandelions [2] = assay: Example 3 FeSO4, EDTA, EDDS and MH combinations on potted dandelions; format: in vivo, Taraxacum officinale; conditions: for Plant Death (%) Dandelion: 3 days after second spray; for Plant Damage (0 to 9) Dandelion: 3 days after second spray (re-sprayed after 9 days)
Procedure: (§2) The following non-limiting examples serve to further describe the invention. Unless otherwise specified, all of the iron solutions were made using the same molar concentration of iron ion as chelating agent. All of the outside tests were done on areas of mixed grass and dandelions that were at least 2 months old. For the greenhouse tests, dandelions were grown in a commercial greenhouse mix, using supplemental lighting and heating. Each plant was grown in a 2¼ inch pot to a minimum diameter of 20 cm. All of the solutions were sprayed onto the plants at a rate of 100 ml/m^2. The ferrous sulfate formulations that were used in examples 1, 2, 8 and 9 contained 1% iron (180 mM), 18 mM EDTA, 1% citric acid and 0.5% urea. In all of the examples, the amount of iron is identified in brackets as the percent iron on a weight basis.
(§3) All plant damage was assessed using a qualitative rating scale from 0 to 9.
(§4) This test investigated the effect of 10% chelation and pH on potted grass and dandelions. All of the solutions contained 10% ferrous sulfate heptahydrate, resulting in a Fe^+2 concentration of 2% (358.1 mM). EDTA and EDDS were added at 1/10th of the iron molar concentration (35.8 mM). MH was added 1%. The dandelions and turf grasses were sow in separate pots 3 weeks prior to the start of the test.
(§5) The plants were re-sprayed after 9 days.

grass [3] = assay: Example 2 field test of FeEDDS and FeHEDTA at pH 3 and 7, grass; format: in vivo; conditions: solution pH 2.6-3.0; field, 0.1 L/m^2, 4 days after spraying
Procedure: as §2, §3
(§6) The FeEDDS and FeHEDTA solutions contained 0.2% Fe^+3 (35.8 mM). The ferrous sulfate contained 1% Fe^+2 (179.1 mM). The solutions were sprayed at a rate of 0.1 L/m^2 onto 2 plots of 0.5 m^2 of mixed grass and dandelions. Observations were made 4 days after spraying.

grass [4] = assay: Example 1 field test of iron chelates, grass damage; format: in vivo; conditions: field, sprayed once at 100 ml/m^2, 5 days after spraying
Procedure: as §2, §3
(§7) All of the iron chelates were sprayed once at 0.2% Fe^+3 (35.8 mM), at a volume of 100 ml/m^2 onto 0.5 m^2 areas of mixed grass and dandelions. The spraying of the test was followed by 2 days of rain-free weather. Observations were made 5 days after spraying.

dandelions [5] = assay: Example 7 potassium nonanoate with FeHEDTA, greenhouse dandelions; format: in vivo, Taraxacum officinale; conditions: for Dead Plants (#/10): 8 + 5 days after spraying
Procedure: as §2, §3
This test compared the damaged caused by combinations of fatty acid and FeHEDTA. FeHEDTA was used at a concentration to 35.8 mM. The treatment with 0.1% Fe contained twice the molar amount of chelating agent as iron. The treatment with 0.2% iron contained the same molar amount of chelating agent as iron Potassium nonanoate (KC9) was used at 0.84%. The plants were re-sprayed 8 days after the first spray.

dock (Rumex crispus) = assay: Example 9 lawn restoration, dock coverage; format: in vivo; conditions: after 18 days, sprayed twice
Procedure: as §1

turf grasses = conditions: for Plant Death (%) Grass: 3 days after second spray; for Plant Damage (0 to 9) Grass: 3 days after second spray (re-sprayed after 9 days)
Procedure: as §2, §3, §4, §5

grass [6] = assay: Example 9 lawn restoration, grass coverage and damage; format: in vivo; conditions: after 18 days, sprayed twice
Procedure: as §1

dandelions [7] = assay: Example 1 field test of iron chelates, dandelion damage; format: in vivo, Taraxacum officinale; conditions: sprayed once at 100 ml/m^2, 5 days after spraying
Procedure: as §2, §3, §7

[8] = test system: daisy plants (Bellis perennis BELPE); assay: Example 8 field daisy test of iron solutions; format: in vivo; conditions: 0.5 L/m^2, 6 days after spraying
Procedure: as §2

dandelions [9] = assay: Example 2 field test of FeEDDS and FeHEDTA at pH 3 and 7, dandelion; format: in vivo, Taraxacum officinale; conditions: solution pH 2.6-3.0, 0.1 L/m^2, 4 days after spraying
Procedure: as §2, §3, §6

## O=S(=O)([O-])[O-].[Fe+2] [FeSO4, ferrous sulfate]
[1]; Example 9, text
  effect on dandelion (and dock) in the plots, in words: did not appear to reduce the area covered by dandelions
[1]; after 18 days, sprayed twice
  Plot Area Covered (%) By: Dandelion: 65%
Dandelions [2]; pH 3
  Plant Death (%) Dandelion: 76%
  Plant Damage (0 to 9) Dandelion: 8.2 0 to 9
Dandelions [2]; pH 6
  Plant Death (%) Dandelion: 17%
  Plant Damage (0 to 9) Dandelion: 6.0 0 to 9
Grass [3]
  Grass Damage (0 to 9): 7.0 0 to 9
Grass [4]
  Grass Damage (0 to 9): 7
Dandelions [5]; 8 + 5 days after spraying (re-sprayed after 8 days), listed as FeSO4 (0.2% Fe^+2)
  Plant Damage (0 to 9): 0.2 0 to 9
Dandelions [5]; 8 + 5 days after spraying (re-sprayed after 8 days), listed as FeSO4 (1% Fe^+2)
  Plant Damage (0 to 9): 7.2 0 to 9
Dandelions [5]; 8 + 5 days after spraying (re-sprayed after 8 days), listed as FeSO4 (2% Fe^+2)
  Plant Damage (0 to 9): 8.4 0 to 9
Dandelions [5]; listed as FeSO4 (0.2% Fe^+2)
  Dead Plants (#/10): 0 #/10
Dandelions [5]; listed as FeSO4 (1% Fe^+2)
  Dead Plants (#/10): 5 #/10
Dandelions [5]; listed as FeSO4 (2% Fe^+2)
  Dead Plants (#/10): 8 #/10
Dandelions [5]; 7 days after spraying, listed as FeSO4 (0.2% Fe^+2)
  Plant Damage (0 to 9): 0.8 0 to 9
Dandelions [5]; 7 days after spraying, listed as FeSO4 (1% Fe^+2)
  Plant Damage (0 to 9): 4.4 0 to 9
Dandelions [5]; 7 days after spraying, listed as FeSO4 (2% Fe^+2)
  Plant Damage (0 to 9): 6.2 0 to 9
Dock (Rumex crispus)
  Plot Area Covered (%) By: Dock: 14%
Turf grasses; pH 3
  Plant Death (%) Grass: 0%
  Plant Damage (0 to 9) Grass: 4
Turf grasses; pH 6
  Plant Death (%) Grass: 0%
  Plant Damage (0 to 9) Grass: 0
Grass [6]
  Grass Damage (0 to 9): 1
  Plot Area Covered (%) By: Grass: 20%
Dandelions [7]
  Dandelion Damage (0 to 9): 6.3 0 to 9
[8]
  Daisy Mortality (%): 6%
Dandelions [9]
  Dandelion Damage (0 to 9): 7.0 0 to 9
